This passage reports IC50 results from US20250051367A1, “HETEROCYCLE-CONTAINING LONP1 INHIBITOR COMPOUNDS, USES AND METHODS” (Pretzel Therapeutics, Inc., priority 2021, published 2025).

SMILES strings stand for the structures.

For orientation: IC50 means the point on the concentration scale where inhibition reaches its midpoint. Read a high IC50 as a need for much substance.

LONP1 (NM_004793.4), sequence (P36776 68-959): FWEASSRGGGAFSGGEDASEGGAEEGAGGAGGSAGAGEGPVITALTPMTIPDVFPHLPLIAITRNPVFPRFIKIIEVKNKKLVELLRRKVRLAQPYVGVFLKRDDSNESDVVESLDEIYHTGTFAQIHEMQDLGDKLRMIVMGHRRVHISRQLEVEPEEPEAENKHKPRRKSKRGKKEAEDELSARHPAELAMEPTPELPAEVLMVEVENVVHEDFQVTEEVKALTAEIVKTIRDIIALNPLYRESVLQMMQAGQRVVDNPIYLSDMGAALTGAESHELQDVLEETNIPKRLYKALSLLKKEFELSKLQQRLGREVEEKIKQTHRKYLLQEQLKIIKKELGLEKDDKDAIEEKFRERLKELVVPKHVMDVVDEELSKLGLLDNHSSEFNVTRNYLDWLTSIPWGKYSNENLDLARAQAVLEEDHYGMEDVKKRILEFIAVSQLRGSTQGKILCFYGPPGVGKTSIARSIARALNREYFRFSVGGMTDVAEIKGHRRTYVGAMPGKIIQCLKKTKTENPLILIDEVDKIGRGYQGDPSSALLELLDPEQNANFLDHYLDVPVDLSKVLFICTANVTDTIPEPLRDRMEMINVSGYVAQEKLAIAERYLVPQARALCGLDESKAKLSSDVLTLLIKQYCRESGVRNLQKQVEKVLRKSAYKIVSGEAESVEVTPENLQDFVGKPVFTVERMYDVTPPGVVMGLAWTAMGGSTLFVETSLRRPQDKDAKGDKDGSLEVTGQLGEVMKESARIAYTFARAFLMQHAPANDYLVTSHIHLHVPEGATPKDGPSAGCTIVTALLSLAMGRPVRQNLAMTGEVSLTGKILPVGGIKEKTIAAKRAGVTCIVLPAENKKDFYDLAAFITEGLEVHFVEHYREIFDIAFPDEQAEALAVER

In this test the target is LONP1 (NM_004793.4) (Homo sapiens (Human), UniProt P36776). Nature of the test: LONP1 FRET-based protease activity assay (fluorogenic peptide substrate). The format is biochemical. Conditions: substrate 3 μM, LONP1 15 nM, 1 hour at 37° C.; average of a minimum of two repeats. On the procedure:
The inhibitory activity of the compounds of the present invention against LONP1, 20S proteasome and other proteases are determined by assays known to persons of ordinary skill in the art (see, e.g., Fishovitz, J. et al. “Active-Site-Directed Chemical Tools for Profiling Mitochondrial Lon Protease” ACS Chem. Biol. 6, 781-788 (2011)).
In this Example, LONP1 (NM_004793.4) activity was measured by a FRET-based assay for protease activity using a fluorogenic peptide DabcylYRGIT(2Abu)SGRQK(5-FAM) (Cambridge Research Biochemicals) as substrate. LONP1 activity is followed by an increase in fluorescence signal due to the degradation of the peptide. Inhibition of LONP1 protease activity by an inhibitor compound of the disclosure elicits a decrease in the fluorescent signal.
The assay is performed in a 384-well plate (Greiner, cat. #781076) using the following reagents and conditions: substrate (3 μM) was incubated for 1 hour at 37° C. in the presence of LONP1 (15 nM as monomer), 25 mM Tris pH 8.0, 10 mM MgCl2, 0.03 mg/mL BSA, 0.5 mM DTT, 0.0003% Tween-20, 10 mM NaCl, 0.06 mM ATP and 0.5 mM EGTA in a 15 μL final volume. The LONP1-containing mix (10 μL) was incubated with the test compound for 15 min at 37° C. before adding the peptide-containing mix (5 μL). Solutions were dispensed using a small cassette-Multidrop Combi (Thermo Scientific). Fluorescence was measured using a PheraStar plate reader (BMG Labtech) FI-FRET EX 485 nm Em 520 nm.
Each value is based on an average of a minimum of two repeats.
`O=C(N[C@@H](Cc1nccs1)C(=O)N[C@@H](CCCc1ccccc1)B(O)O)c1cnccn1` [Compound 2, ((R)-4-phenyl-1-((S)-2-(pyrazine-2-carboxamido)-3-(thiazol-2-yl)propanamido)butyl)boronic acid] registered a concentration for half-maximal inhibition (IC50) below 50 nM. As to `CC(C)C[C@H](NC(=O)[C@@H](Cc1nccn1C)NC(=O)c1cnccn1)B(O)O` [Compound 8, ((R)-3-methyl-1-((R)-3-(1-methyl-1H-imidazol-2-yl)-2-(pyrazine-2-carboxamido)propanamido)butyl)boronic acid], the half-maximal inhibitory concentration (IC50) lay within 50 to 500 nM. With `Cn1ccnc1C[C@@H](NC(=O)c1cnccn1)C(=O)N[C@@H](CCCc1ccccc1)B(O)O` [Compound 12, ((R)-1-((R)-3-(1-methyl-1H-Imidazol-2-yl)-2-(pyrazine-2-carboxamido)propanamido)-4-phenylbutyl)boronic acid], the IC50 is below 50 nM. In turn, `Cn1ccc(C[C@@H](NC(=O)c2cnccn2)C(=O)N[C@@H](CCCc2ccccc2)B(O)O)n1` [Compound 3, ((R)-1-((R)-3-(1-methyl-1H-pyrazol-3-yl)-2-(pyrazine-2-carboxamido)propanamido)-4-phenylbutyl)boronic acid] gave a half-inhibitory concentration (IC50) below 50 nM. `Cn1ccnc1C[C@H](NC(=O)c1cnccn1)C(=O)N[C@@H](CCCc1ccccc1)B(O)O` [Compound 13, ((R)-1-((S)-3-(1-methyl-1H-imidazol-2-yl)-2-(pyrazine-2-carboxamido)propanamido)-4-phenylbutyl)boronic acid] showed an IC50 of 50 to 500 nM. For `CC(C)C[C@H](NC(=O)[C@H](Cc1nccn1C)NC(=O)c1cnccn1)B(O)O` [Compound 9, ((R)-3-methyl-1-((S)-3-(1-methyl-1H-imidazol-2-yl)-2-(pyrazine-2-carboxamido)propanamido)butyl)boronic acid] the value was 50 to 500 nM; for `Cn1ccc(C[C@@H](NC(=O)c2cnccn2)C(=O)N[C@H](CCCc2ccccc2)B(O)O)n1` (stereo in doubt) [Compound 4, ((S)-1-((R)-3-(1-methyl-1H-pyrazol-3-yl)-2-(pyrazine-2-carboxamido)propanamido)-4-phenylbutyl)boronic acid], below 50 nM. Compound `O=C(N[C@H](Cc1c[nH]c2ccccc12)C(=O)N[C@@H](CCCc1ccccc1)B(O)O)c1cnccn1` [Compound 7, ((R)-1-((R)-3-(1H-indol-3-yl)-2-(pyrazine-2-carboxamido)propanamido)-4-phenylbutyl)boronic acid] came in with an IC50 of 50 to 500 nM. In turn, `O=C(N[C@@H](Cc1ncco1)C(=O)N[C@@H](CCCc1ccccc1)B(O)O)c1cnccn1` [Compound 11, ((R)-1-((S)-3-(oxazol-2-yl)-2-(pyrazine-2-carboxamido)propanamido)-4-phenylbutyl)boronic acid] had a half-inhibitory concentration (IC50) below 50 nM. Take `O=C(N[C@H](Cc1nccs1)C(=O)N[C@@H](CCCc1ccccc1)B(O)O)c1cnccn1` [Compound 1, ((R)-4-phenyl-1-((R)-2-(pyrazine-2-carboxamido)-3-(thiazol-2-yl)propanamido)butyl)boronic acid]: the half-inhibitory concentration (IC50) was below 50 nM. Compound `O=C(N[C@H](Cc1cnco1)C(=O)N[C@@H](CCCc1ccccc1)B(O)O)c1cnccn1` [Compound 5, ((R)-1-((R)-3-(oxazol-5-yl)-2-(pyrazine-2-carboxamido)propanamido)-4-phenylbutyl)boronic acid] came in with an IC50 below 50 nM. Compound `O=C(N[C@@H](Cc1cnco1)C(=O)N[C@@H](CCCc1ccccc1)B(O)O)c1cnccn1` [Compound 6] came in with an IC50 below 50 nM. Consider `O=C(N[C@H](Cc1ncco1)C(=O)N[C@@H](CCCc1ccccc1)B(O)O)c1cnccn1` [Compound 10, ((R)-1-((R)-3-(oxazol-2-yl)-2-(pyrazine-2-carboxamido)propanamido)-4-phenylbutyl)boronic acid], for which the 50% inhibitory concentration (IC50) is below 50 nM.
